Series [1] relates to rhesus monkeys. As to the kind of experiment: conflict model of anxiolytic activity which also measures sedation. As to conditions: for sedative activity (conflict model): intravenously; for anxiolytic effect (conflict model): intravenously in propylene glycol/water. It is filed as in vivo. As to the method: The data in FIGS. 21A-21F reflect the ability of the compounds or drugs to exert an anxioyic effect in rhesus monkeys (J. Rowlett, J. M. Cook et al., unpublished results) when given intravenously in propylene glycol/water solution. This is the conflict model of anxiolytic activity which also measures sedation. […] In FIG. 21B, SH-053-2′F (JY-XHE-053) is anxiolytic at a dose of greater than 0.13 mg/kg, but exerts only some slight sedation at doses greater than 1.2 mg/kg (responses decrease). In FIG. 21C it is clear the S-enantiomer of SH-053-2′F—S—CH3 is anxiolytic with no sedation up to 10-18 mg/kg, which is the highest dose tested.

Series [2] concerns neuropathic pain after CCI of the sciatic nerve. The series is described as follows: chronic constriction injury (CCI) model, mechanical sensitization (von Frey filaments). It counts as in vivo, mice. As to the method: In addition, the pro- or antinociceptive effects of the compounds of the present invention are analyzed in the chronic constriction injury (CCI) model. The GABAA receptor subunit selective test compounds of the present invention are analysed in the CCI model in 7-8-week-old C57BL/6 mice. See Bennett, G. J. & Xie, Y. K. A peripheral mononeuropathy in rat that produces disorders of pain sensation like those seen in man. […] Seven to eight week old mice are anesthetized with isofluran. Unilateral constriction injury of the left sciatic nerve just proximal to the trifurcation is performed with three loose ligatures. In sham-operated animals the sciatic nerve is exposed and the connective tissue is freed, but no ligatures are applied. […] Heat hyperalgesia, cold allodynia and mechanical sensitization are assessed 7-9 days after surgery. Mechanical sensitivity is assessed with electronic von Frey filaments (IITC).
Pain studies—Neuropathic pain: HZ166 and gabapentin were analyzed in the chronic constriction injury (CCI) model. Unilateral constriction injury of the left sciatic nerve just proximal to the trifurcation was performed as described previously (Bennett and Xie, 1988). Anesthesia was induced and maintained by 2% isoflurane, combined with oxygen (30%). The sciatic nerve was exposed at the mid-thigh level proximal to the sciatic trifurcation by blunt dissection through the biceps femoris muscle. […] of nerve were freed of adhering tissue and three chromic gut ligatures (4/0) (Ethicon) were loosely put around the nerve with about 1 mm spacing. The ligatures were tied until they elicited a brief twitch in the hindlimb. The surgical wound was closed in layers. Heat hyperalgesia and mechanical sensitization were assessed 7-16 days after surgery.
Pain Studies—Mechanical sensitization: Mechanical sensitivity was assessed with dynamic von Frey filaments (IITC, Woodland Hills, Calif.). 4-5 measurements were made for each time point and animal and averaged. Measurements of paw withdrawal thresholds of the injured paw and of the contralateral paw were made alternately.
Statistical Analysis: For all different doses and vehicle, baseline paw withdrawal thresholds/latencies on day 7 after nerve ligation or on day 2 after zymosan A injection were subtracted from all later withdrawal thresholds and the area under the curve (AUC) was calculated. Drug effects were expressed as percent maximum possible effect (MPE) calculated from comparisons of paw withdrawal latencies or thresholds obtained prior to surgery or inflammation and before and after drug treatment. […] Unless otherwise indicated, statistical comparisons were made with one-way analysis of variance (ANOVA) followed by Scheffe's post hoc test. P values<0.05 were considered significant.

Series [3] addresses T1, GABAA/α5 (α5β3γ2 GABAA receptor) (Homo sapiens, UniProt P18507+P31644).
T1 construct: expressed in transfected cells
As to the kind of experiment: competitive binding assay with [3H]flunitrazepam. On the procedure:
(§1) Membranes were harvested with a Brandel cell harvester followed by three ice-cold washes onto polyethyleneimine-pretreated (0.3%) Whatman GF/C filters. Filters were dried overnight and then soaked in Ecoscint, a liquid scintillation cocktail (National Diagnostics; Atlanta, Ga.). Bound radioactivity was quantified by liquid scintillation counting. Membrane protein concentrations were determined using an assay kit from Bio-Rad (Hercules, Calif.) with bovine serum albumin as the standard.
as §1, with “The GABAA subunit selectivity of several compounds prepared as described above were determined using competitive binding assays. […] Membranes” for “Membranes”

Series [4] addresses T2, GABAA/α2 (α2β3γ2 GABAA receptor) (Homo sapiens, UniProt P18507+P47869).
T2 construct: expressed in transfected cells
The series is described as follows: competitive binding assay with [3H]flunitrazepam. As to conditions: Binding Affinity at GABAA/α2, Table 4, stereoisomers. As to the method:
as §1
as §1, with “The GABAA subunit selectivity of several compounds prepared as described above were determined using competitive binding assays. […] Membranes” for “Membranes”

The target in series [5] is T3, GABAA/α1 (α1β3γ2 GABAA receptor) (Homo sapiens, UniProt P14867+P18507).
T3 construct: expressed in transfected cells
As to the kind of experiment: competitive binding assay with [3H]flunitrazepam. As to conditions: Binding Affinity at GABAA/α1, Table 4, stereoisomers. As to the method: as §1
as §1, with “The GABAA subunit selectivity of several compounds prepared as described above were determined using competitive binding assays. […] Membranes” for “Membranes”

For series [6], the target named is T4, GABAA/α3 (α3β3γ2 GABAA receptor) (Homo sapiens, UniProt P18507+P34903).
T4 construct: expressed in transfected cells
As to the kind of experiment: competitive binding assay with [3H]flunitrazepam. As to conditions: Binding Affinity at GABAA/α3, Table 4, stereoisomers. As to the method: as §1
as §1, with “The GABAA subunit selectivity of several compounds prepared as described above were determined using competitive binding assays. […] Membranes” for “Membranes”

SMILES strings stand for the structures.

Take `CCOC(=O)c1ncn2c1CN=C(c1ccccc1)c1cc(Cl)ccc1-2`: the melting point – broadly, the temperature of the solid-liquid transition – fell in the range of 174 to 175 °C.
Take `CNC1=Nc2ccc(C#C[Si](C)(C)C)cc2C(c2ccccc2)=NC1`: the melting point fell in the range of 210 to 211 °C.
Compound `C[Si](C)(C)C#Cc1ccc2c(c1)C(c1ccccn1)=NCC(=O)N2` showed a melting point of 242 to 243 °C.
`CN1C(=O)CN=C(c2ccccn2)c2cc(C#C[Si](C)(C)C)ccc21` came in with a melting point of 194 to 195 °C.
In turn, `C#Cc1ccc2c(c1)C(c1ccccn1)=NCC(=O)N2C` had a melting point of 190 to 191 °C.
`CCOC(=O)c1ncn2c1CN=C(c1ccccn1)c1cc(C#C[Si](C)(C)C)ccc1-2`: the melting point was in the range of 205 to 206 °C.
With `O=C(OCC(Cl)(Cl)Cl)c1ncn2c1CN=C(c1ccccc1)c1cc(Br)ccc1-2`, the melting point lay in the range of 113 to 116 °C.
On the same count and under the same terms, as for `C[Si](C)(C)C#Cc1ccc2c(c1)C(c1ccccc1)=NCc1c(C(=O)OCC(F)(F)F)ncn1-2`, the figure is 107 to 110 °C.
Take `C#Cc1ccc2c(c1)C(c1ccccc1F)=NC(C)c1c(C(=O)OCC)ncn1-2` (single isomer, unassigned) [SH-053-2′F-R-CH3, 8-Ethynyl-6-(2-fluorophenyl)-4-methyl-4H-2,5,10b-triaza-benzo[e]azulene-3-carboxylic acid ethyl ester]: in series [1], the “sedative activity (conflict model)” value is given as “not sedating” and the “anxiolytic effect (conflict model)” value is reported as “only a weak anxiolytic”.
Regarding `C#Cc1ccc2c(c1)C(c1ccccc1F)=NC(C)c1c(C(=O)OCC)ncn1-2` (single isomer, unassigned) [SH-053-2′F-S-CH3, 8-Ethynyl-6-(2-fluorophenyl)-4-methyl-4H-2,5,10b-triazabenzo[e]azulene-3-carboxylic acid ethyl ester], the “no sedation up to dose” value in series [1] (conflict model) was 10 to 18 mg/kg. Besides, in series [1], the “anxiolytic effect (conflict model)” value was “anxiolytic”.
As to `C#Cc1ccc2c(c1)C(c1ccccc1)=NCc1c(C(=O)OCC(F)(F)F)ncn1-2` [DM-II-20, Trifluoroethyl 8-acetylenyl-6-phenyl-4H-benzo[f]imidazo[1,5-a][1,4]diaze-pine-3-carboxylate], the melting point lay within 188 to 190 °C.
In the case of `CCOC(=O)c1ncn2c1CN(C)C(=O)c1cc(F)ccc1-2` [Flumazenil, flumazenil, reference compound], the “AUC of mechanical PWT, HZ166 followed by flumazenil” value in series [2] (HZ166 16 mg/kg i.p., flumazenil 10 mg/kg i.p. 45 min later, n=6) is 0.54 ± 0.25 g·h. Moreover, the “effect on the antihyperalgesic effect of HZ166” value in series [2] (flumazenil 10 mg/kg i.p., HZ166 16 mg/kg) was “almost completely reversed”.
As to `C#Cc1ccc2c(c1)C(c1cccs1)=NCc1c(C(=O)OCC)ncn1-2` [JC-221, Ethyl 8-acetyleno-6-(2′-thienyl)-4H-benzo[f]imidazo[1,5-a][1,4]diazepine-3-carboxylate], in series [3] (Binding Affinity at GABAA/α5, Table 3), the inhibition constant Ki (as a rule, the equilibrium dissociation constant of an inhibitor or competing ligand from its target) was 14.5 nM.
`C#Cc1ccc2c(c1)C(c1ccccn1)=NC(C)c1c(C(=O)OCC)ncn1-2` (stereo not drawn) [SH-053-2′N-S-CH3, 8-Ethynyl-4-methyl-6-pyridin-2-yl-4H-2,5,10b-triaza-benzo[e]azulene-3-carboxylic acid ethyl ester]: the Ki in series [4] stood at 2330 nM; in series [3] (Binding Affinity at GABAA/α5, Table 4, stereoisomers), 744 nM; in series [5] it was 6950 nM; in series [6], 2650 nM.
As for `C#Cc1ccc2c(c1)C(c1ccccc1)=NCc1c(C(=O)OCC)ncn1-2` [XHE-II-053, Ethyl 8-acetylenyl-6-phenyl-4H-benzo[f]imidazo[1,5-a][1,4]diazepine-3-carboxylate], in series [1], the “sedative activity (conflict model)” value is “no sedative activity” and the “anxiolytic effect (conflict model)” value is recorded as “anxiolytic”. In series [2] (10 mg/kg i.p.), the “analgesic effect, mechanical sensitivity (von Frey) in CCI model” value was “significantly analgesic”. For the same compound, the “analgesic effects in the chronic constriction injury model of neuropathic pain” value in series [2] (mouse, in vivo) is recorded as “analgesic effects”.

The values are drawn from USRE47475E1, “Selective agents for pain suppression” (WiSys Technology Foundation, Inc., priority 2002, dated 2019).
